Measured values reported in ChEMBL document CHEMBL6103654, “Design, Biological Characterization, and Discovery of Capromorelin Derivatives as Oral Growth Hormone Secretagogue Receptor Type 1a Agonist for the Treatment of Growth Hormone Deficiency” (J Med Chem, 2025).
Active and inactive are the calls of the source. No cut-off for these calls is given here.

How the values were obtained:
[1] = Plasma protein binding in monkey assessed as unbound fraction measured after 6 hrs by dialysis method; format: ADME, cell-free, Macaca mulatta; details: rhesus monkey
Rattus norvegicus [2] = assay: Induction of growth hormone level in 6 week-old female Sprague-Dawley rat assessed as increase in body length at 2.5 mg/kg, po measured after 10 days; format: functional, organism-based; details: time 10.0 day
[3] = biological target: Growth hormone secretagogue receptor type 1 (Rattus norvegicus, UniProt O08725); assay: Agonist activity at rat GHSR expressed in CHO cells incubated for 60 min by FLIPR assay; format: functional, cell-based
[4] = biological target: Growth hormone secretagogue receptor type 1 (Rattus norvegicus) (UniProt O08725); assay: Agonist activity at rat GHSR expressed in CHO cells at maximum concentration incubated for 60 min by FLIPR assay relative to control; format: functional, cell-based; details: filed as agonist
Rattus norvegicus [5] = assay: Induction of growth hormone level in adult Sprague-Dawley rat blood at 0.5 mg/kg, po administered as single dose measured immediately by ELISA method (reference value: 12.6+/-4.4 ng/mL); format: functional
[6] = Metabolic stability in monkey liver microsome assessed as half life at 1 uM measured upto 60 mins in presence of NADPH by LC-MS/MS analysis; format: ADME, Macaca mulatta; details: rhesus monkey, liver microsomes
[7] = Metabolic stability in human liver microsome assessed as half life at 1 uM measured upto 60 mins in presence of NADPH by LC-MS/MS analysis; format: ADME; details: liver microsomes
Rattus norvegicus [8] = assay: Induction of growth hormone level in 4 week-old male Sprague-Dawley rat assessed as increase in body weight at 2.5 mg/kg, po measured after 10 days; format: functional, organism-based; details: time 10.0 day
[9] = Plasma protein binding in mouse assessed as unbound fraction measured after 6 hrs by dialysis method; format: ADME, cell-free
Rattus norvegicus [10] = species on record: Rattus norvegicus; assay: Induction of growth hormone level in 6 week-old Sprague-Dawley rat assessed as increase in body length measured after 10 days; format: functional, organism-based; details: time 10.0 day
[11] = Metabolic stability in mouse liver microsome assessed as hepatic clearance at 1 uM measured upto 60 mins in presence of NADPH by LC-MS/MS analysis; format: ADME; details: liver microsomes, read-out: CLH
[12] = Half life in male mouse at 1 mg/kg, iv administered as single dose measured after 4 hrs; format: ADME, organism-based; details: in vivo
Rattus norvegicus [13] = assay: Induction of growth hormone level in Juvenile Sprague-Dawley rat blood at 0.2 mg/kg, po administered as single dose measured after 40 mins by ELISA method (reference value: 40.1+/-11.0 ng/mL); format: functional
[14] = Toxicity in Sprague-Dawley rat assessed as change in hepatic structure by measuring hepatic lobules at 10 to 100 mg/kg, po administered once daily for 14 days; format: organism-based; details: in vivo, 336 h, dose 10-100 mg/kg, time 14 day
Rattus norvegicus [15] = assay: Induction of growth hormone level in Juvenile Sprague-Dawley rat blood at 0.2 mg/kg, po administered as single dose measured after 1 hr by ELISA method (reference value: 45.2+/-12.5 ng/mL); format: functional
Rattus norvegicus [16] = assay: In vivo agonist activity at GSHR in Sprague-Dawley rat assessed as increase in food consumption at 10 to 100 mg/kg, po administered once daily for 14 days; format: functional, organism-based; details: dose 10-100 mg/kg, time 14.0 day
[17] = Clearance in male dog plasma at 0.5 mg/kg, iv administered as single dose measured after 4 hrs; format: ADME, organism-based, Canis lupus familiaris
[18] = Metabolic stability in dog liver microsome assessed as hepatic clearance at 1 uM measured upto 60 mins in presence of NADPH by LC-MS/MS analysis; format: ADME, Canis lupus familiaris; details: liver microsomes, read-out: CLH
[19] = Oral bioavailability in male Sprague-Dawley rat at 2 mg/kg administered as single dose measured after 4 hrs; format: ADME, organism-based; details: in vivo
[20] = AUC in male dog at 2 mg/kg, po administered as single dose measured after 4 hrs; format: ADME, organism-based, Canis lupus familiaris; details: in vivo
[21] = Plasma protein binding in dog assessed as unbound fraction measured after 6 hrs by dialysis method; format: ADME, cell-free, Canis lupus familiaris
[22] = Metabolic stability in dog liver microsome assessed as intrinsic clearance at 1 uM measured upto 60 mins in presence of NADPH by LC-MS/MS analysis; format: ADME, Canis lupus familiaris; details: liver microsomes, read-out: CLH
Rattus norvegicus [23] = assay: Induction of growth hormone level in Juvenile Sprague-Dawley rat blood at 0.1 mg/kg, po administered as single dose measured after 40 mins by ELISA method (reference value: 40.1+/-11.0 ng/mL); format: functional
[24] = Cmax in male monkey at 2 mg/kg, po administered as single dose measured after 4 hrs; format: ADME, organism-based, Macaca mulatta; details: rhesus monkey, in vivo
Rattus norvegicus [25] = assay: Induction of growth hormone level in 6 week-old male Sprague-Dawley rat assessed as increase in body length at 2.5 mg/kg, po measured after 10 days; format: functional, organism-based; details: time 10.0 day
[26] = Elimination half life in male Sprague-Dawley rat at 1 mg/kg, iv administered as single dose measured after 4 hrs; format: ADME, organism-based; details: in vivo, read-out: beta t1/2 (converted)

Sequence of Growth hormone secretagogue receptor type 1 (O08725 whole entry): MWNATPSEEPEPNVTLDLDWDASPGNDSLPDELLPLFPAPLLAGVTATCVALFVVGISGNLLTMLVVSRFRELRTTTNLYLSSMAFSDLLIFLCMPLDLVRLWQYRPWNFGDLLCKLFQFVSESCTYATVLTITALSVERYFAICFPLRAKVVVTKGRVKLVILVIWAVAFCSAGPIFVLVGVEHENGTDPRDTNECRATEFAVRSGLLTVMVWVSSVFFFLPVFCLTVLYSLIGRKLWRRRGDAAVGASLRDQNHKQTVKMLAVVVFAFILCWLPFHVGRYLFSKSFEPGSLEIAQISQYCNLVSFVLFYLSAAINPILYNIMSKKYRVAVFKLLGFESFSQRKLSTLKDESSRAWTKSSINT
Sequence of Growth hormone secretagogue receptor type 1 (Rattus norvegicus) (O08725 whole entry): as above

## CC(C)(N)C(=O)N[C@H](COCc1ccccc1)C(=O)N1CCC2=NN(C3CC3)C(=O)[C@]2(Cc2ccccc2)C1
[1]
  fraction unbound at 6 h: 0.46
Rattus norvegicus [2]
  Activity: Active
[3]
  EC50: 7 pM
[4]
  Activity: 96.7%
Rattus norvegicus [5]
  Activity: 14 ng/mL
[6]
  half-life at 1 µM: 3.1 min
[7]
  half-life at 1 µM: 11.3 min
Rattus norvegicus [8]
  Activity: Active
[9]
  fraction unbound at 6 h: 0.621
Rattus norvegicus [10]
  Activity: Dose-dependent-effect
[11]
  CLint scaled at 1 µM: 1370 mL/min/kg
[12]
  half-life: 16.2 min
Rattus norvegicus [13]
  Activity: 66.5 ng/mL
[14]
  Activity: Non-toxic
Rattus norvegicus [15]
  Activity: 45.9 ng/mL
Rattus norvegicus [16]
  Activity: Active
[17]
  clearance: 35 mL/min/kg
[18]
  CLint scaled at 1 µM: 237 mL/min/kg
[19]
  bioavailability: 16.7%
[20]
  AUC at 4 h: 406 ng·h/mL
[21]
  fraction unbound at 6 h: 0.563
[22]
  microsomal CLint at 1 µM: 134 µL/min/mg
Rattus norvegicus [23]
  Activity: 74.5 ng/mL
[24]
  Cmax: 43.4 ng/mL
Rattus norvegicus [25]
  Activity: Active
[26]
  half-life: 64.2 min
